{
  "source": "patent US20220062165A1",
  "about": "“COMPOSITIONS AND METHODS FOR INTRANASAL DELIVERY OF PREGNENOLONE” (M et P Pharma AG, priority 2018, published 2022)",
  "set-up_in_all_cases": "species or system rat",
  "key": {"[1]": {"system": "extracellular acetylcholine levels in the frontal cortex", "assay": "In vivo microdialysis after intranasal administration in both nostrils, frontal cortex", "details": "5 μl each in both nostrils", "description": "(§1) Acetylcholine concentration values are presented as % of baseline with six baseline samples taken as 100 (mean+SE). Pregnenolone was administrated intranasally at a volume of 5 μl each in both nostrils, at the 0 minute time point. Time is presented in the x-axis and mean and standard error of acetylcholine concentration (expressed as % of baseline) are presented in the y-axis. Filled black circles represent the vehicle, unfilled white circles represent the 5.6 mg/mL pregnenolone dose and the triangle represents the 11.2 mg/mL pregnenolone dose.\n(§2) The semipermeable membrane allows molecules smaller than 6 KDa to pass through. The length of the active membrane is 2 mm for the frontal cortex and amygdala, and 4 mm for the hippocampus.\n(§3) Microdialysis. Prior the microdialysis process, the animals were anesthetized with Urethane intraperitoneal injection. (1.25 gram/kilogram, Sigma Aldrich). To allow fluid supply (perfusion liquid) (Ringer's solution 0.2 milliliter every 20 minutes) without physical contact with the animal, a catheter was placed into the intraperitoneal cavity. The animal was placed in an acrylic box (45×25×22 centimeter), and the body temperature was monitored and held stable at 36.5±0.5 degrees Celsius by atemperature controller (CMA/150) and a heating pad. […]"}, "[2]": {"system": "extracellular acetylcholine levels in the amygdala", "assay": "In vivo microdialysis after intranasal administration in both nostrils, amygdala", "details": "11.2 mg/mL, 5 μl each in both nostrils; n=4", "description": "as §1, §2, §3"}, "[3]": {"system": "extracellular acetylcholine levels in the amygdala", "assay": "In vivo microdialysis after lateralized intranasal administration (one nostril), amygdala", "details": "5 μl of 11.2 mg/mL gel in one nostril, vehicle in the other; anesthetized rats; n=10", "source_text": "Subjects. A total number of 10 adult male Wistar rats 3-4 months of age and weighting between 400 and 500 grams, at the time of surgery, were obtained from the local animal facility (Tierversuchsanlage, University of Dusseldorf, Germany). They were grouped 4 per cage (Makrolon cage, type IV, 60.0×20.0×38.0 centimeter), and separated into individual cases after the surgery. They were housed under a reversed light-dark cycle (light off from 7 after midnight (AM) to 7 post meridiem (PM)), with free access to food and water. […] After two weeks of adaptation, animals underwent microdialysis as described below. All experiments were carried out in accordance with the European Communities Council Directive (86/609/EEC) on animal welfare, and approved by the German Animal Protection Law Authorities—LANUV Nordrhein-Westfalen.\nSurgery. Rats underwent implantation of microdialysis probes into specific brain areas. They were anesthetized with a mixture of ketamine hydrochloride (90.0 milligram/kilogram (mg/kg); Pharmacia & Upjohn) and xylazine hydrochloride (8.0 mg/kg; Bayer) and placed in a stereotaxic frame (David Kopf Instruments). […]\nMicrodialysis. […] The animal was placed in an acrylic box (45×25×22 centimeter), and the body temperature was monitored and held stable at 36.5±0.5 degrees Celsius by atemperature controller (CMA/150) and a heating pad. […]"}, "[4]": {"system": "extracellular acetylcholine levels in the hippocampus", "assay": "In vivo microdialysis after intranasal administration in both nostrils, hippocampus", "details": "5 μl each in both nostrils", "description": "as §1, §2, §3"}},
  "note": "“Also recorded” adds a separate entry of the source.",
  "data": [
    {"smiles": "CC(=O)[C@H]1CC[C@H]2[C@@H]3CC=C4C[C@@H](O)CC[C@]4(C)[C@H]3CC[C@]12C", "note": "[pregnenolone]", "values": [
      {"measurement": "effect on acetylcholine release in the frontal cortex", "setting": "[1]; 5.6 mg/mL, n=5", "result": "Neither pregnenolone (PREG) at dosage 5.6 mg/mL or 11.2 mg/mL had an effect"},
      {"measurement": "effect on acetylcholine release in the frontal cortex", "setting": "[1]; 11.2 mg/mL, n=6", "result": "Neither pregnenolone (PREG) at dosage 5.6 mg/mL or 11.2 mg/mL had an effect"},
      {"measurement": "effect on acetylcholine (ACh) release in the amygdala", "setting": "[2]", "result": "induced an increase in acetylcholine release in the amygdala"},
      {"measurement": "extracellular acetylcholine in the amygdala contralateral to the treated nostril", "setting": "[3]", "result": "not in the contralateral amygdala"},
      {"measurement": "extracellular acetylcholine in the amygdala ipsilateral to the treated nostril", "setting": "[3]", "result": "Higher increase in the ipsilateral amygdala of extracellular level of acetylcholine; also recorded: increases acetylcholine in the amygdala ipsilateral to this nostril"},
      {"measurement": "effect on acetylcholine release in the hippocampus", "setting": "[4]; 5.6 mg/mL, n=7", "result": "had no effect"},
      {"measurement": "effect on acetylcholine release in the hippocampus", "setting": "[4]; 11.2 mg/mL, n=5", "result": "had an effect on acetylcholine release in the hippocampus, but this effect was not significant"}
    ]}
  ]
}
